Patent US20160378912A1, “STRUCTURE-BASED MODELING AND TARGET-SELECTIVITY PREDICTION” (EPIGENETX, LLC, priority 2013, published 2016)

Columns and labels:
[1] = target: HIV-RT WT (Human immunodeficiency virus type 1 group M subtype B, UniProt P04585); conditions: Rotili et al. 2012; cited from earlier work
[2] = target: HIV-RT L100I (Human immunodeficiency virus type 1 group M subtype B, UniProt P04585, L687I); conditions: Rotili et al. 2012; cited from earlier work
[3] = target: HIV-RT K103N (Human immunodeficiency virus type 1 group M subtype B, UniProt P04585, K690N); conditions: Rotili et al. 2012; cited from earlier work
[4] = target: HIV-RT V106A (Human immunodeficiency virus type 1 group M subtype B, UniProt P04585, V693A); conditions: Rotili et al. 2012; cited from earlier work
[5] = target: HIV-RT Y181I (Human immunodeficiency virus type 1 group M subtype B, UniProt P04585, Y768I); conditions: Rotili et al. 2012; cited from earlier work
[6] = target: HIV-RT Y188L (Human immunodeficiency virus type 1 group M subtype B, UniProt P04585, Y775L); conditions: Rotili et al. 2012; cited from earlier work
[7] = test system: HDAC isoforms; assay: HDAC inhibition profiled over several HDAC isoforms (experimental); assay type: biochemical, human
[8] = target: HDAC4 (Homo sapiens, UniProt P56524); conditions: MTS inhibitors; cited from earlier work
HDAC4, sequence (P56524 whole entry): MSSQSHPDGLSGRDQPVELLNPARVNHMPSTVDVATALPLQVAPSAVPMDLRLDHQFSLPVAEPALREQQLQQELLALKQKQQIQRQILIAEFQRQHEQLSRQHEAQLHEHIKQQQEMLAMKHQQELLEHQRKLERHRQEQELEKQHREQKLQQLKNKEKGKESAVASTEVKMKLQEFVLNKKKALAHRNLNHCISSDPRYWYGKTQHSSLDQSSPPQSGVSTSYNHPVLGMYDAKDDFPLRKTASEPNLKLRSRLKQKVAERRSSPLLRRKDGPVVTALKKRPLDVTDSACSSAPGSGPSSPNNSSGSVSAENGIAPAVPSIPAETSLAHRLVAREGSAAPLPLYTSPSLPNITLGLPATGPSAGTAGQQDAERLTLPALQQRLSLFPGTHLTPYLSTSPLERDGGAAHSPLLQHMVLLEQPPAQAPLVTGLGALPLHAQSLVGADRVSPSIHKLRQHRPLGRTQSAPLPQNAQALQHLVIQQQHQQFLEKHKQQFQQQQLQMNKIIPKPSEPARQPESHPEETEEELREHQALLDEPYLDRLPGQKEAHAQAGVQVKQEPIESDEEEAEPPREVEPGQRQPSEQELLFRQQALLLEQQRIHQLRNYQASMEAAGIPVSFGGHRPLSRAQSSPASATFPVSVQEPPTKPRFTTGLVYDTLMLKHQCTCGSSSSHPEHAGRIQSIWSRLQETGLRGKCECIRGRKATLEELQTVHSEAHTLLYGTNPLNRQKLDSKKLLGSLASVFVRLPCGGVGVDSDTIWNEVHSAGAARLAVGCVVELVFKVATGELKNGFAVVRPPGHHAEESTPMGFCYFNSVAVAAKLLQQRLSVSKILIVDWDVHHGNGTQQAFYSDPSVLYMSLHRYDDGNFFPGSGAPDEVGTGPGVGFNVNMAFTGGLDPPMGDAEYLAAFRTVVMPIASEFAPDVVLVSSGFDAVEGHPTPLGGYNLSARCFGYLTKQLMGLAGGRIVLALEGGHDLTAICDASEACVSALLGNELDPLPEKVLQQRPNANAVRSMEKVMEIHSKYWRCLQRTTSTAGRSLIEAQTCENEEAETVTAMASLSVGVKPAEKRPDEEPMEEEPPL

[9] = target: HDAC5 (Homo sapiens, UniProt Q9UQL6); conditions: MTS inhibitors, HDAC5; cited from earlier work
HDAC5, sequence (Q9UQL6 whole entry): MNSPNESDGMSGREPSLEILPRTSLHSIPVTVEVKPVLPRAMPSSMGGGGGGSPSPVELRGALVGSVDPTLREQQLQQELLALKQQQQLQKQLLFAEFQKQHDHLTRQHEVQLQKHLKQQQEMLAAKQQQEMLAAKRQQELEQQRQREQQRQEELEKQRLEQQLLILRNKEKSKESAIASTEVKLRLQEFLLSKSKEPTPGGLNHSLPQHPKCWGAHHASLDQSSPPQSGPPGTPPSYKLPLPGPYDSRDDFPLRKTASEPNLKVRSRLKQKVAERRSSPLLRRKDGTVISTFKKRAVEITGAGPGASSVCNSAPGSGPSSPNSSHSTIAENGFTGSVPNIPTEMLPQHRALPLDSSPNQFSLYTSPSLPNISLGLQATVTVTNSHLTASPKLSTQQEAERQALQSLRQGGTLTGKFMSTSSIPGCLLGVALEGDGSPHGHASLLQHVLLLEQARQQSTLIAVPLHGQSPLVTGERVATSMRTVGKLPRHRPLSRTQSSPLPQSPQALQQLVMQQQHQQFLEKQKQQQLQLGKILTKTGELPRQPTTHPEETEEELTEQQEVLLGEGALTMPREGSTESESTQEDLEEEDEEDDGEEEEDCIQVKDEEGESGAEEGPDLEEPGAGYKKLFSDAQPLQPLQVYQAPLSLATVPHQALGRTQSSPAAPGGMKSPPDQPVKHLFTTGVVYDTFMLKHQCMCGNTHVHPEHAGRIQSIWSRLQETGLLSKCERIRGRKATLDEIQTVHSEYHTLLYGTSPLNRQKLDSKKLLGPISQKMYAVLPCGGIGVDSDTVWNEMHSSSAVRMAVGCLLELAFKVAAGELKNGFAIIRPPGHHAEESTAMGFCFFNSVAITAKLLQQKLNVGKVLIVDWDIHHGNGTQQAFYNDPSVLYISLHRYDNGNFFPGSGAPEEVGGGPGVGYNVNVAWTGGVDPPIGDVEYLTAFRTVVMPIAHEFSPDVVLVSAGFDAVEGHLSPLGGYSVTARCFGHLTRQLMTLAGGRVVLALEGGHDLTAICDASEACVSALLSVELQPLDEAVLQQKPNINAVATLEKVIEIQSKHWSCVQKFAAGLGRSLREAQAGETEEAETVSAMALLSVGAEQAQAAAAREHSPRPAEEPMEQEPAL

[10] = target: T1, HDAC7 (Homo sapiens, UniProt Q8WUI4); conditions: MTS inhibitors; cited from earlier work
T1 sequence (Q8WUI4 1-952): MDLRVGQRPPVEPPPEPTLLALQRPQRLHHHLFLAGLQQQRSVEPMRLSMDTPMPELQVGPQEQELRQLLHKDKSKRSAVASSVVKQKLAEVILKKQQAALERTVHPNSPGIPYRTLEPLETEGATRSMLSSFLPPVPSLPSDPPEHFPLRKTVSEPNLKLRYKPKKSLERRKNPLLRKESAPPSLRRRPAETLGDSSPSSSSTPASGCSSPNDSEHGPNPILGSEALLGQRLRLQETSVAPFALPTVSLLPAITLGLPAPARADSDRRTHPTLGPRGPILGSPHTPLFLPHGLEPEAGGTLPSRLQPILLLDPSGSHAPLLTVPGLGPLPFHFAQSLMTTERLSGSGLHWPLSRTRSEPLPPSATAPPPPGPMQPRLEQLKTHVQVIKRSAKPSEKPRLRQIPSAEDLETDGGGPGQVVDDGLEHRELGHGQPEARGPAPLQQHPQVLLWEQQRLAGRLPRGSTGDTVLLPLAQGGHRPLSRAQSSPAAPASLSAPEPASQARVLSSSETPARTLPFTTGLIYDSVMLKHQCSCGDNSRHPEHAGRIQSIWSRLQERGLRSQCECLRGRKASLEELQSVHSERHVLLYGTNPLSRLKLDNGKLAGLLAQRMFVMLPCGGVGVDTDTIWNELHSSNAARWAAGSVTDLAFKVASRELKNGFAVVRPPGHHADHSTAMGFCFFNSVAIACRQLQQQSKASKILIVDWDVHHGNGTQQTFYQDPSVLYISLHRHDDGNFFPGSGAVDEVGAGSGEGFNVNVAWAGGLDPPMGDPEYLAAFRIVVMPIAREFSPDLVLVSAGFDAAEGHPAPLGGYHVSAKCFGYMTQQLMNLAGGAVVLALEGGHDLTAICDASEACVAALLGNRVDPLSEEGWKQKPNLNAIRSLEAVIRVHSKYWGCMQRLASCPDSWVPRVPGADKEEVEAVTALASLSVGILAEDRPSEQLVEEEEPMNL

[11] = target: HDAC9 (Homo sapiens, UniProt Q9UKV0); conditions: MTS inhibitors; cited from earlier work
HDAC9, sequence (Q9UKV0 whole entry): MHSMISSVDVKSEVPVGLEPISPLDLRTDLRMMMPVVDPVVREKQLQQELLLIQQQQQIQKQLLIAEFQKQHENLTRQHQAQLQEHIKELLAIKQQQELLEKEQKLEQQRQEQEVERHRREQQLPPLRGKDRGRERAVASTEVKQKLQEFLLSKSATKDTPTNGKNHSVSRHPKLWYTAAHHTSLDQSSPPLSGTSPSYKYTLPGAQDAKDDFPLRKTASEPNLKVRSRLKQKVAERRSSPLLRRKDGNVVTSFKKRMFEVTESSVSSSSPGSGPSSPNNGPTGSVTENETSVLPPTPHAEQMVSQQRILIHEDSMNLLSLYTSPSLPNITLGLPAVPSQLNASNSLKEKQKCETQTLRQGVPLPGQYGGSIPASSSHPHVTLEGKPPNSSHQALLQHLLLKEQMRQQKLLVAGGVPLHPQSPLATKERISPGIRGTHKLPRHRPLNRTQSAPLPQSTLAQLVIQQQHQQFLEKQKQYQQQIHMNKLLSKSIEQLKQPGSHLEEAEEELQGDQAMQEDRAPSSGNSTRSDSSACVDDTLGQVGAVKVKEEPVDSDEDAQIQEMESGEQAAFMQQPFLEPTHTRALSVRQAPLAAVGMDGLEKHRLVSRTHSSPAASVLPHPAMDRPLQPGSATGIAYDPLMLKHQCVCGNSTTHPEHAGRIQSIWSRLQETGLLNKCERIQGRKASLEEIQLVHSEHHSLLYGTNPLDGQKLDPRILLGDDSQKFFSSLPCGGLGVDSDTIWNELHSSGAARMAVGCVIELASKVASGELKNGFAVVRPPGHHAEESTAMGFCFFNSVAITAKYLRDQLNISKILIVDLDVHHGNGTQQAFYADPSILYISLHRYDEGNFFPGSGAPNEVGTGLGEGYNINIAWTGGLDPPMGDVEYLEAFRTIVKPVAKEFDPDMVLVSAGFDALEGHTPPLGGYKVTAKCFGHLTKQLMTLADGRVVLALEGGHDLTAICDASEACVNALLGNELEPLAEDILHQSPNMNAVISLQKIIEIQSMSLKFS

[12] = test system: HDLP; conditions: CTS; cited from earlier work

Compound	Experimental activity (pKi), Exp [1]	Experimental activity (pKi), Exp [2]	Experimental activity (pKi), Exp [3]	Experimental activity (pKi), Exp [4]	Experimental activity (pKi), Exp [5]	Experimental activity (pKi), Exp [6]	average pIC50 value, Exp. ([7]; average over HDAC isoforms, MTS)	Exp. pIC50 [8]	Exp. pIC50 [9]	Exp. pIC50 [10]	Exp. pIC50 [11]	Bioactivity range (ΔpIC50) DpIC50 ([7]; range of pIC50 over the profiled HDAC isoforms)	Experimental pIC50 [12]	IC50 [12] [nM]
Cc1c(N)nc(Nc2ccc(C#N)cc2)nc1[C@H](C)c1c(F)cccc1F [(R)-MC2082]	6.81	8.10	8.52	9.52	6.12	8.10	–	–	–	–	–	–	–	–
Cc1c(N)nc(Nc2ccc(C#N)cc2)nc1[C@@H](C)c1c(F)cccc1F [(S)-MC2082]	4.52	6.74	7.19	6.62	6.29	4.40	–	–	–	–	–	–	–	–
O=C(O)CCCc1ccccc1 [MCL-3]	–	–	–	–	–	–	3.40	2.70	2.70	2.70	2.70	–	–	–
CC(/C=C/C(=O)NO)=C\[C@H](C)C(=O)c1ccc(N(C)C)cc1 (stereo in doubt) [TSA, 7-(4-(Dimethylamino)phenyl)-N-hydroxy-4,6-dimethyl-7-oxo-2,4-heptadienamide]	–	–	–	–	–	–	–	–	–	–	–	2.34	6.40	400
C/C=C/N(C)c1nc([C@@H](C)c2c(F)cccc2F)c(C)c(=O)[nH]1 [(S)-MC1501]	6.93	4.40	6.01	6.45	4.40	4.40	–	–	–	–	–	–	–	–
C/C=C/N(C)c1nc([C@H](C)c2c(F)cccc2F)c(C)c(=O)[nH]1 [(R)-MC1501]	8.70	7.02	7.02	8.52	6.35	6.71	–	–	–	–	–	–	–	–
